Measured values published in PubChem BioAssay AID1117361 (Southern Research Institute, 2015).
pIC50: −log10 of the molar value.

Each molecule was assayed against Protein Tat (Human immunodeficiency virus type 1 group M subtype B (isolate HXB2)) (UniProt P04608) (assay: HIV-1 Tat–TAR interaction blockers – biochemical, fluorescence polarization, FAM-labeled TAR RNA, counter-screen for Vif-APOBEC3G degradation inhibitor project, dose response (AID 1117361)). Settings: Tat-TAR RNA binding.
Sequence of Protein Tat (Human immunodeficiency virus type 1 group M subtype B (isolate HXB2)) (P04608 whole entry, looked up): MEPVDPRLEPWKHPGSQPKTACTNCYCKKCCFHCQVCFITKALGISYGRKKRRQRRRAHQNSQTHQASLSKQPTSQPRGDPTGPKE

Compound | pIC50
CCOC(=O)C1=C(C)N=C2SC(C(=O)OC)=CC(=O)N2C1c1cc(OC)c(OC)c(OC)c1 (centres undefined) | 4.50
CN(CC(=O)Nc1cccc(F)c1)C(=O)c1cccc(-n2cccc2)c1 | 4.39
N#Cc1c(N)sc(=S)c2c1CCCCC2 | 5.73
O=C(c1ccc2nc(-c3ccco3)c(-c3ccco3)nc2c1)N1CCC2(CC1)OCCO2 | 5.37
COc1ccc2c(c1)n([O-])c1c([n+]2=O)CCC1 | 4.28
O=C(O)c1[nH]c2ccc(Cl)cc2c1CC(=O)N1CCN(C(=O)c2ccco2)CC1 | 4.16
CN(C)c1ccc(Cc2cc3c(O)ccc(O)c3cc(Cc3ccc(N(C)C)cc3)c2=O)cc1 | 4.07
CC(C)C(C(=O)O)N1C(=O)/C(=C/C=C/c2ccco2)SC1=S (centres undefined) | 5.85
O=[N+]([O-])c1ccc(Sc2nc3ccccc3o2)c([N+](=O)[O-])c1 | 4.78
N#C/C(=C\c1ccc([N+](=O)[O-])o1)C(=O)Nc1ccc(F)cc1 | 4.25
Cc1ccn2cc(-c3nonc3C)cc2c1 | 4.67
CC(C)c1ccc(/C=C/C(=O)N2CCc3ccccc3C2)cc1 | 4.47
CN(CCc1ccccc1)C(=O)c1ccc(NC(=O)Cc2ccc(NC(=O)C3CCN(C(=O)CCc4ccccc4)CC3)cc2)cc1 | 4.35
CCN1CCN(c2cc(N3CCN(C(=O)c4ccco4)CC3)c3c4c(onc24)-c2ccccc2C3=O)CC1 | 5.24
CCN(CC(=O)Nc1c(F)cccc1F)C(=O)CSC(=S)N1CCCC1 | 4.12
COCc1cc(C)nc(NCCO)c1C#N | 5.84
O=C(/C=C/c1ccco1)NC(=S)Nc1ccccc1N1CCOCC1 | 4.59
O=C(OCC1O[C@@H](OC(=O)c2cc(O)c(O)c(O)c2)[C@@H](OC(=O)c2cc(O)c(O)c(O)c2)[C@@H](OC(=O)c2cc(O)c(O)c(O)c2)[C@@H]1OC(=O)c1cc(O)c(O)c(O)c1)c1cc(O)c(O)c(O)c1 (some centres undefined) | 4.60
CN1c2ccsc2C(O)=C(C(=S)Nc2ccc(F)c(Cl)c2)S1(=O)=O | 5.27
O=C1NC(c2cccc(Br)c2)=N/C1=C\c1ccco1 | 5.04
COc1cc(NC(=O)CS(=O)(=O)c2ccc(C)cc2)cc(OC)c1OC | 5.85
N#CC1=C(N)OC2=C(CCC/C2=C/c2ccoc2)C1c1ccoc1 (centres undefined) | 5.13

Compound | pIC50
CNc1ccccc(C(=O)/C=C/c2ccccc2OC)c1=O | 5.17
COC(C(=O)C(O)C(C)O)C1Cc2cc3cc(OC4CC(OC5CC(O)C(O)C(C)O5)C(O)C(C)O4)c(C)c(O)c3c(O)c2C(=O)C1OC1CC(OC2CC(OC3CC(O)C(OC)C(C)O3)C(O)C(C)O2)C(O)C(C)O1 (centres undefined) | 4.55
COc1cccc(C2CC(c3ccccc3OC)n3nc(N)nc3N2)c1 (centres undefined) | 6.16
COc1ccc(NC(=O)CC2Nc3cccc4cccc(c34)NC2=O)cc1 (centres undefined) | 5.15
Cc1c(O)cc2c(c1O)C(=O)CC(c1ccc(O)cc1)O2 (centres undefined) | 4.43
O=C(CCN1C(=O)/C(=C/c2cccs2)SC1=S)NC1=NCCS1 | 4.34
COC/C=C/C1=CC2=CC(=O)C(C)(OC(=O)c3ccco3)C(=O)C2=CO1 (centres undefined) | 5.13
Cc1oc(-c2ccc(Cl)cc2)cc1-c1nn2c(-c3ccoc3C)nnc2s1 | 5.54
O=C(NCCO)c1ccc2nc(-c3ccco3)c(-c3ccco3)nc2c1 | 5.13
Oc1ccc(N=Cc2sc3ccccc3c2Cl)cc1 | 4.21
COc1ccccc1NC(=O)CSc1nnc(Cc2cc(=O)[nH]c(=O)[nH]2)n1-c1ccccc1 | 4.18
Cn1c(O)c(/C=N/NC(=O)c2ccncc2)c(=O)[nH]c1=S | 4.29
CCCCn1c(O)c(C(CC)=NCCN2CCCCC2)c(=O)[nH]c1=O | 4.49
Cc1n[nH]c(=S)n(NC(=O)/C=C/C(=O)Nn2c(=S)[nH]nc(C)c2=O)c1=O | 4.74
O=C(NCCO)Nc1ccc2nc(-c3ccco3)c(-c3ccco3)nc2c1 | 5.76
O=C(N/N=C/C=C/c1ccco1)c1cccs1 | 4.94
COc1cc2[nH]c(Cl)c([N+](=O)[O-])c2cc1OC | 4.61
CC1CC(=O)c2c(cc3c(-c4c(O)cc(O)c5c(O)c6c(cc45)OC(C)CC6=O)c(O)cc(O)c3c2O)O1 (centres undefined) | 5.12
O=C(CCS(=O)(=O)c1ccc(Br)cc1)NC1CCCC1 | 4.29
COc1ccc(/C=N/NC(=O)c2cc(O)c(O)c(O)c2)cc1Cn1cc([N+](=O)[O-])cn1 | 4.33
CC(C)OC(=O)c1cccc(C(=O)O)n1 | 5.72
Cc1cc(C(=O)CSc2nnc(-c3ccco3)o2)c(C)n1Cc1ccco1 | 5.36

Compound | pIC50
Cc1ccc(-c2ccc(CCC(=O)O)n2NC(N)=S)cc1 | 4.75
NCCc1c[nH]c2ccccc12 | 4.93
O=C(O)CC(C(=O)O)N1C(=O)/C(=C/C=C/c2ccco2)SC1=S (centres undefined) | 5.87
CCN1CCc2c(C#N)c(NCc3ccccc3)nc(N(CC)CC)c2C1 | 4.23
CCOc1cccc(CNCCNC(=O)c2nonc2N)c1 | 4.07
COc1cc(CC(=O)OCC(=O)Nc2cccc([N+](=O)[O-])c2)cc(OC)c1OC | 4.57
O=[N+]([O-])c1cc2oc3c(c2c(C=NCc2ccncc2)c1O)CCCC3 | 4.87
CC(C)c1ccc(N2C(=O)NC(=O)/C(=C\C=C\c3ccco3)C2=O)cc1 | 4.47
Cc1ccc(C)c(-n2c(Cc3cc(=O)[nH]c(=O)[nH]3)nnc2SC(C)C)c1 | 4.11
C=CCn1c(COc2ccc(F)cc2)nnc1SCC(=O)NC(=O)NCc1ccco1 | 4.03
COC(=O)/C(=N/Nc1ccccc1C)N1CCCc2ccccc21 | 4.53
O=C1NC(=O)C(=Cc2ccc(SC3CCCCC3)o2)C(=O)N1 | 4.51
CN(C)N1C(N)=C(C#N)C(c2cccnc2)C2=C1CCCC2=O (centres undefined) | 4.81
O=C(Nc1nnc(C2CCCO2)s1)c1cccs1 (centres undefined) | 4.01
O=C(O)CCCNc1cc(N2CCC3(CC2)OCCO3)c2noc3c2c1C(=O)c1ccccc1-3 | 5.44
CCOC(=O)C1=C(N)n2c(s/c(=C/c3ccco3)c2=O)=C(C(=O)OC)C1c1ccco1 (centres undefined) | 5.01
CCc1ccc(N2C(=O)NC(=O)/C(=C\C=C\c3ccco3)C2=O)cc1 | 4.35
Cc1cccc(N2C(=O)NC(=O)/C(=C/c3cc4c(cc3[N+](=O)[O-])OCO4)C2=O)c1 | 6.04
COc1ccc2c(c1)C(=O)c1ccccc1CO2 | 4.33
CO[C@H]1C=CO[C@@]2(C)Oc3c(C)c(O)c4c(O)c(c(C=NN5CCN(C)CC5)c(O)c4c3C2=O)NC(=O)C(C)=CC=C[C@H](C)[C@H](O)[C@@H](C)[C@@H](O)[C@@H](C)[C@H](OC(C)=O)[C@@H]1C | 4.95
CCOc1ccc(N(CC(=O)NC(C)(C)C)S(=O)(=O)c2c(C)noc2C)cc1 | 5.27
O=[N+]([O-])c1cc(Br)c(O)c(C=Nc2ccc(N3CCOCC3)cc2)c1 | 4.11

Compound | pIC50
Oc1cc2c(cc1O)[C@H]1c3ccc(O)c(O)c3OC[C@@]1(O)C2 | 4.80
CCOC(=O)C1CCN(C(=O)COc2ccc(S(=O)(=O)NC(C)C)cc2)CC1 | 4.09
O=C(Nc1cc(Cl)cc(Cl)c1)c1coc(=O)c(Br)c1 | 4.63
CCCCN1C2CCCC1CC(NC(=O)c1ccc(OC)c(OC)c1)C2 (centres undefined) | 4.11
Cc1ccc2c(c1C)NC(C(=O)O)C1CC=CC21 (centres undefined) | 4.46
CN(C)C(CNC(=O)c1cccnc1Sc1ccccc1)c1ccco1 (centres undefined) | 4.16
Cn1cnnc1SCC(=O)Nc1ncc([N+](=O)[O-])s1 | 4.23
Cc1cc(NC(=O)Cc2cccs2)no1 | 4.25
O=C1NC(=O)N(c2ccc(Cl)cc2)C(=O)/C1=C\c1ccc(Sc2nc3ccccc3[nH]2)o1 | 5.47
CS(=O)(=O)c1ccc2c(c1)SC1=NC(=O)/C(=C/c3ccco3)C(=N)N12 | 4.98
Cn1c(N)c(C(=O)COC(=O)C2CCCCC2)c(=O)n(C)c1=O | 4.12
O=C1NC(=O)N(Cc2ccco2)C(=O)/C1=C/C=C/c1ccco1 | 5.71
O=C1NC(=O)N(Cc2ccccc2)C(=O)/C1=C\C=C\c1ccco1 | 4.51
O=C(NCC1CCCO1)c1cc(-c2ccco2)nc2ccccc12 (centres undefined) | 4.31
CCN(C(=O)c1coc(=O)c(Br)c1)c1ccc2c(c1)OCO2 | 5.93
O=C1C(=Cc2ccco2)CCCC1=Cc1ccco1 | 4.19
COC(=O)c1ccccc1NC(=O)C1CCCC1 | 5.31
CCOC(=O)C1CCCN(C(=O)c2cc(-c3ccco3)nc3ccccc23)C1 (centres undefined) | 4.56
c1cncc(-c2nnc3sc(-c4ccco4)nn23)c1 | 4.19
CC1(c2ccc3noc(-c4ccccc4)c3c2)OCCO1 | 5.54
O=C(O)CCc1ccc(S(=O)(=O)Nc2cc(C(F)(F)F)ccc2N2CCCC2)cc1 | 4.17
CCN(CC)c1ccc2c(c1)CCCN2 | 5.54

Compound | pIC50
CCCCC1=CC2=CC(=O)C(C)(OC(=O)C3CCCC3)C(=O)C2=CO1 (centres undefined) | 4.27
O=S(=O)(O)c1cc(Cl)cc(N=Nc2ccc(O)cc2O)c1O | 4.65
CCN1C(=O)/C(=C\c2ccco2)C(C(=O)OC)=C1C | 4.09
O=C1CC(=O)N(Cc2ccco2)C(=S)N1 | 5.81
CCCc1cc(=O)oc2cc(C)c(CN3CCCC3)c(O)c12 | 4.77
COc1cccc(C2C(C#N)=C(N)OC3=C2C(=O)CC(c2ccco2)C3)c1OCc1ccc(F)cc1 (centres undefined) | 4.91
CC1(CCl)N([O-])C2=C(CCCC2)[N+]1=O (centres undefined) | 4.35
Oc1ccc(N=Cc2ccc(-c3cccs3)s2)cc1 | 5.06
COC(=O)c1ccccc1NC(=O)CCS(=O)(=O)c1ccc(Br)cc1 | 4.74
O=c1ccc2c(-c3ccccc3S(=O)(=O)O)c3ccc(O)c(O)c3oc-2c1O | 5.32
O=C(N/N=C/c1ccc(O)c(O)c1O)/C(=C/c1ccc([N+](=O)[O-])cc1)NC(=O)c1ccccc1 | 5.14
CC(/C=N/n1c(-c2ccncc2)n[nH]c1=S)=C\c1ccco1 | 5.09
O=C1/C(=C/c2ccco2)SC(=S)N1c1cccnc1 | 5.41
CC(C)Cn1c(SCC(=O)NC(=O)Nc2ccc3c(c2)OCCO3)nc2ccccc2c1=O | 5.79
COC(=O)c1ccc(=O)c2nc3/c(=C/O)c(O)cc(=O)c3[nH]c12 | 4.69
COc1ccc(O)c(C(=O)C2c3ccccc3C(=O)N2c2ccc(C)cc2)c1 (centres undefined) | 6.52
COC(=O)Cn1c(CCC(=O)O)ccc1-c1ccccc1 | 4.37
O=C(O)CC(C(=O)O)N1C(=O)/C(=C/c2ccc(-c3nc4ccccc4s3)o2)SC1=S (centres undefined) | 4.95
O=C(O)C1Nc2ccc(Br)cc2C2C=CCC12 (centres undefined) | 5.43
CCCOc1ccc(N)cc1N | 4.23
Cc1ccc(C(CC(=O)NCc2ccco2)c2ccccc2)c(O)c1 (centres undefined) | 4.52
